The record followed here is patent US20250213701A1, “MEDICAMENT FOR TREATING HUMAN TUMOR BASED ON ERF3A-TARGETING PROTEOLYSIS MECHANISM” (SUZHOU DEGEN BIO-MEDICAL CO., LTD., priority 2022, published 2025).

One experiment relates to OVCAR-3 cells. The experiment can be described thus: Anti-proliferative toxicity of C63 in tumor cell lines (CCK8): OVCAR-3. In kind it is cell-based. The settings on record: Homo sapiens, 72 h, 3 days, read-out: Inhibition rate. How it is done:
(§1) Example 83: Detection of Anti-Proliferative Toxicity of C63 in Some Tumor Cell Lines
OVCAR-3 cells (purchased from the Cell Bank of the Chinese Academy of Sciences, Cat. No. TCHu228) were subcultured in a culture medium (RPMI-1640 medium+1% penicillin-streptomycin dual-antibiotic solution++20% fetal bovine serum+0.01 mg/mL recombinant human insulin) in an incubator at 5% carbon dioxide and 37° C.
OVCAR-3 cells were seeded at 2000 cells/well (90 μL) on a 96-well plate and cultured for 24 h.
(§2) 10 mM compound stock solutions were prepared in DMSO.
(§3) The compound stock solution was diluted with DMSO to give DMSO solutions 1-9 at concentrations of 0 μM, 2500 μM, 500 μM, 100 μM, 20 μM, 4 μM, 0.8 μM, 0.16 μM, and 0.032 μM.
(§4) 2 μL of each of solutions 1-9 was added to 98 μL of the medium to give mixed solutions 11-19 of the compound and the medium.
(§5) 10 μL of each of solutions 11-19 was added to the above cell seed solution to give a total volume of 100 μL (90 μL+10 μL).
(§6) The concentrations of the compound in the wells were 0 μM, 5.0 μM, 1.0 μM, 0.2 μM, 0.04 μM, 0.008 μM, 0.0016 μM, 0.00032 μM, and 0.000064 μM. All concentrations were in triplicate.
(§7) After the above-treated cells were cultured for 3 days, 10 μL of the CCK8 solution (DOJINDO, Cat. No. PF725) was added to each well. The plate was incubated in an incubator at 37° C. for 1-4 h and then detected on a microplate reader for the reading at 450 nm.

The subject of another experiment is MCF-7 cells. The experiment can be described thus: Anti-proliferative toxicity of C63 in tumor cell lines (CCK8): MCF-7. The class given is cell-based. As to conditions: Homo sapiens, MCF7, 72 h, 3 days, read-out: Inhibition rate. How it is done:
as §1
MCF-7 cells (purchased from the Cell Bank of the Chinese Academy of Sciences, Cat. No. SCSP-531) were subcultured in a culture medium (MEM medium+1% penicillin-streptomycin dual-antibiotic solution+10% fetal bovine serum+0.01 mg/mL recombinant human insulin) in an incubator at 5% carbon dioxide and 37° C.
MCF-7 cells were seeded at 5000 cells/well (90 μL) on a 96-well plate and cultured for 24 h.
as §2, §3, §4, §5, §6, §7

The next experiment deals with Hep 3B2.1-7 cells. The experiment can be described thus: Anti-proliferative toxicity of C63 in tumor cell lines (CCK8): Hep 3B2.1-7. In kind it is cell-based. As to conditions: Homo sapiens, 72 h, 3 days, read-out: Inhibition rate. How it is done:
as §1
Hep3B2.1-7 cells (purchased from the Cell Bank of the Chinese Academy of Sciences, Cat. No. TCHu106) were subcultured in a culture medium (MEM medium+1% penicillin-streptomycin dual-antibiotic solution+10% fetal bovine serum) in an incubator at 5% carbon dioxide and 37° C.
Hep 3B2.1-7 cells were seeded at 2000 cells/well (90 μL) on a 96-well plate and cultured for 24 h.
as §2, §3, §4, §5, §6, §7

For the next experiment, the system named is AR. Kind of experiment: Western blot assay in 22Rv1 cells: AR. The class given is cell-based, human. As to conditions: different concentrations at 24 h, and 3 nM at different time points (FIGS. 7 and 8). The source says:
Example 84: Western Blot Assay of Compound C59 in 22Rv1, PC-3, and HepG2 Cells
(1) Materials: 22Rv1, PC-3, and HepG2 cell, anti-SRD5A1 antibody (ab167606), anti-SRD5A2 antibody (ab124877), anti-SRD5A3 antibody (PA5-107029), anti-androgen receptor (AR) antibody (CST, No. 5153), anti-GSPT1 antibody (Abcam, ab234433), anti-GADPH antibody (CST, No. 5174), anti-c-Myc antibody (CST, No. 8583), anti-α-tublin antibody (CST, No. 2125), anti-rabbit IgG, HRP-linked antibody (CST, No. 7074), electrophoresis device and membrane transfer device (LIUYI, BEIJING; DYCZ-24DN)
Cell seeding: 22Rv1 (Cell Bank of the Chinese Academy of Sciences, TCHu100), PC-3 (Cell Bank of the Chinese Academy of Sciences, SCSP-532) and HepG2 cells (Cell Bank of the Chinese Academy of Sciences, TCHu72) were subcultured and trypsinized to prepare 6×10^5 cells/mL suspensions, seeded on 6-well plates (3 mL/well), and cultured overnight in a cell incubator at 5% CO2 and 37° C. […]
Protein quantification: The protein was quantified using a BCA protein quantification kit. […]
Western immunoblot assay (or Western blot, WB): SDS-PAGE gel at a proper concentration was prepared according to the molecular weight of the target protein: for example, the concentration of the separation gel was 8% and the concentration of the stacking gel was 5%. The loading volume was adjusted according to the protein quantification results. […]
On the technique in general: A western blot detects proteins with antibodies after separation by electrophoresis.

Usually inhibition stands for the percentage by which the read-out fell short of the control.

Regarding `C[C@]12C=CC(=O)N[C@@H]1CC[C@@H]1[C@@H]2CC[C@]2(C)[C@@H](C(=O)Nc3cccc(N[C@@H]4CCC[C@@H](Nc5cccc6c5C(=O)N([C@H]5CCC(=O)NC5=O)C6=O)C4)c3)CC[C@@H]12` [C63, N-(3-(N—(N-(4-(2-(3S-(2,6-dioxopiperidine))-isoindole-1,3-dione))-1R,3R-cyclohexanediamine))phenyl)-3-oxo-4-aza-5α-androst-1-ene-17β-carboxamide], the inhibition at 64 pM in the experiment on OVCAR-3 cells (0.000064 μM) stood at 17.9%; with MCF-7 cells (0.000064 μM) it was 6.61%; with Hep 3B2.1-7 cells (0.000064 μM), 77.5%. Also, the inhibition at 0.00032 µM in the experiment on OVCAR-3 cells (0.000320 μM) was 16.4%; in the experiment with MCF-7 cells (0.000320 μM), 14.5%; in the experiment with Hep 3B2.1-7 cells (0.000320 μM), 90.6%. In addition, the inhibition at 0.0016 µM is 42.6% with OVCAR-3 cells (0.001600 μM), 36.8% in the experiment on MCF-7 cells (0.001600 μM) and 90.2% in the experiment on Hep 3B2.1-7 cells (0.001600 μM). The figures for the inhibition at 0.008 µM in the experiment on OVCAR-3 cells (0.008000 μM), with MCF-7 cells (0.008000 μM) and with Hep 3B2.1-7 cells (0.008000 μM) were 61.4%, 46% and 90.4%, respectively. The inhibition at 0.04 µM in the experiment on OVCAR-3 cells (0.040000 μM) is 74.4%; with MCF-7 cells (0.040000 μM), 50.2%; with Hep 3B2.1-7 cells (0.040000 μM), 90.7%. For the same compound, the inhibition at 0.2 µM was determined as 80% in the experiment with OVCAR-3 cells (0.200000 μM), 54.9% with MCF-7 cells (0.200000 μM) and 89.6% in the experiment on Hep 3B2.1-7 cells (0.200000 μM). Further, the values for the inhibition at 1 µM in the experiment on OVCAR-3 cells (1.000000 μM), with MCF-7 cells (1.000000 μM) and in the experiment on Hep 3B2.1-7 cells (1.000000 μM) were 83.7%, 57.6% and 90.5%, respectively. For the same compound, the inhibition at 5 µM with OVCAR-3 cells (5.000000 μM) came to 85%; in the experiment with MCF-7 cells (5.000000 μM), 61.4%; with Hep 3B2.1-7 cells (5.000000 μM), 88.8%.

Take `C[C@]12C=CC(=O)N[C@@H]1CC[C@@H]1[C@@H]2CC[C@]2(C)[C@@H](C(=O)Nc3cccc(N[C@@H]4CCC[C@@H](Nc5cccc6c5C(=O)N(C5CCC(=O)NC5=O)C6=O)C4)c3)CC[C@@H]12` (stereo partly drawn) [C59, N-(3-(N—(N-(4-(2-(3-(2,6-dioxopiperidine))-isoindole-1,3-dione))-1R,3R-cyclohexanediamine))phenyl)-3-oxo-4-aza-5α-androst-1-ene-17β-carboxamide]: the “downregulation of AR protein (Western blot)” value in the experiment on AR is reported as “downregulation”.
